Experimental data from patent publication US11053204B2, “Pyrimidinyloxy benzene derivatives as herbicides” (FMC Corporation, priority 2015, dated 2021).

Legend:
Assay type in all cases: in vivo
kochia (Kochia scoparia) = experiment: Test C preemergence, plant response rating
[1] = test system: nutsedge, yellow (yellow nutsedge, Cyperus esculentus); experiment: Test C postemergence, plant response rating; conditions: for Nutsedge, Yellow plant response rating: scale 0 to 100 (0 no effect, 100 complete control)
In short: (§1)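 After sowing in loam–sand blend or silt loam, pots were sprayed preemergence; separately grown 1- to 4-leaf plants were sprayed postemergence. Following 13 to 15 d under greenhouse conditions, injury was rated visually on a 0 to 100 scale.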

[2] = test system: oilseed rape (Brassica napus); experiment: Test C postemergence, plant response rating; conditions: for Oilseed Rape plant response rating: scale 0 to 100 (0 no effect, 100 complete control)
In short: as §1

[3] = test system: blackgrass (Alopecurus myosuroides); experiment: Test C postemergence, plant response rating; conditions: for Plant response rating, Blackgrass: scale 0 to 100; for Blackgrass plant response rating: scale 0 to 100 (0 no effect, 100 complete control)
In short: as §1

corn (Zea mays) = experiment: Test C postemergence, plant response rating; conditions: for Corn plant response rating: scale 0 to 100 (0 no effect, 100 complete control)
In short: as §1

[4] = test system: crabgrass, large (large crabgrass, Digitaria sanguinalis); experiment: Test C postemergence, plant response rating; conditions: for Crabgrass, Large plant response rating: scale 0 to 100 (0 no effect, 100 complete control)
In short: as §1

[5] = test system: ragweed (common ragweed, Ambrosia elatior); experiment: Test C postemergence, plant response rating; conditions: for Ragweed plant response rating: scale 0 to 100 (0 no effect, 100 complete control)
In short: as §1

[6] = test system: oat, wild (wild oat Avena fatua); experiment: Test C postemergence, plant response rating; conditions: for Oat, Wild plant response rating: scale 0 to 100 (0 no effect, 100 complete control)
In short: as §1

[7] = test system: waterhemp (common waterhemp, Amaranthus rudis); experiment: Test C postemergence, plant response rating
In short: as §1

[8] = test system: lambsquarters (Chenopodium album); experiment: Test C postemergence, plant response rating; conditions: for Lambsquarters plant response rating: scale 0 to 100 (0 no effect, 100 complete control)
In short: as §1

soybean (Glycine max) = experiment: Test C postemergence, plant response rating; conditions: for Soybean plant response rating: scale 0 to 100 (0 no effect, 100 complete control)
In short: as §1

[9] = test system: ryegrass, Italian (Italian ryegrass, Lolium multiflorum); experiment: Test C postemergence, plant response rating; conditions: for Ryegrass, Italian plant response rating: scale 0 to 100 (0 no effect, 100 complete control)
In short: as §1

[10] = test system: galium (catchweed bedstraw, Galium aparine); experiment: Test C postemergence, plant response rating; conditions: for Galium plant response rating: scale 0 to 100 (0 no effect, 100 complete control)
In short: as §1

[11] = test system: foxtail, giant (giant foxtail, Setaria faberii); experiment: Test C postemergence, plant response rating; conditions: for Foxtail, Giant plant response rating: scale 0 to 100 (0 no effect, 100 complete control)
In short: as §1

[12] = test system: velvetleaf (Abutilon theophrasti); experiment: Test C postemergence, plant response rating
In short: as §1

[13] = test system: wheat (winter wheat, Triticum aestivum); experiment: Test C postemergence, plant response rating
In short: as §1

[14] = test system: oat, wild (wild oat Avena fatua); experiment: Test C preemergence, plant response rating
[15] = test system: surinam grass (Brachiaria decumbens); experiment: Test C preemergence, plant response rating
[16] = test system: galium (catchweed bedstraw, Galium aparine); experiment: Test C preemergence, plant response rating
[17] = 125 g ai/ha, scale 0 to 100 (0 no effect, 100 complete control)

For `FC(F)(F)CCCc1c(Br)cccc1Oc1ncc(Cl)cn1` [Compound 89], the “Plant response rating, Kochia” value (kochia (Kochia scoparia); 31 g ai/ha, scale 0 to 100) was 60, the “Plant response rating, Kochia” value (kochia (Kochia scoparia); 62 g ai/ha, scale 0 to 100) was 85 and the “Plant response rating, Kochia” value (kochia (Kochia scoparia); 125 g ai/ha, scale of 0 to 100) was 90. For the same molecule, the “Plant response rating, Nutsedge, Yellow” value ([1]; 16 g ai/ha, scale of 0 to 100) was 0, the “Plant response rating, Nutsedge, Yellow” value ([1]; 31 g ai/ha, scale 0 to 100) was 0 and the “Nutsedge, Yellow plant response rating” value ([1]; 62 g ai/ha) was 0. For the same molecule, the “Nutsedge, Yellow plant response rating” value ([1]; 125 g ai/ha) was 5, the “Plant response rating, Oilseed Rape” value ([2]; 16 g ai/ha, scale of 0 to 100) was 60 and the “Plant response rating, Oilseed Rape” value ([2]; 31 g ai/ha, scale 0 to 100) was 95. For the same molecule, the “Oilseed Rape plant response rating” value ([2]; 62 g ai/ha) was 90, the “Oilseed Rape plant response rating” value ([2]; 125 g ai/ha) was 100 and the “Plant response rating, Blackgrass” value ([3]; 16 g ai/ha) was 10. For the same molecule, the “Plant response rating, Blackgrass” value ([3]; 31 g ai/ha) was 15, the “Blackgrass plant response rating” value ([3]; 62 g ai/ha) was 30 and the “Blackgrass plant response rating” value ([3]; 125 g ai/ha) was 45. For the same molecule, the “Plant response rating, Corn” value (corn (Zea mays); 16 g ai/ha, scale of 0 to 100) was 15, the “Plant response rating, Corn” value (corn (Zea mays); 31 g ai/ha, scale 0 to 100) was 15 and the “Corn plant response rating” value (corn (Zea mays); 62 g ai/ha) was 15. The “Corn plant response rating” value (corn (Zea mays); 125 g ai/ha) was 20, the “Plant response rating, Crabgrass, Large” value ([4]; 16 g ai/ha, scale of 0 to 100) was 55 and the “Plant response rating, Crabgrass, Large” value ([4]; 31 g ai/ha, scale 0 to 100) was 60. The “Crabgrass, Large plant response rating” value ([4]; 62 g ai/ha) was 85, the “Crabgrass, Large plant response rating” value ([4]; 125 g ai/ha) was 90 and the “Plant response rating, Ragweed” value ([5]; 16 g ai/ha, scale of 0 to 100) was 0. For the same molecule, the “Plant response rating, Ragweed” value ([5]; 31 g ai/ha, scale 0 to 100) was 5, the “Ragweed plant response rating” value ([5]; 62 g ai/ha) was 10 and the “Ragweed plant response rating” value ([5]; 125 g ai/ha) was 25. The “Plant response rating, Oat, Wild” value ([6]; 16 g ai/ha, scale of 0 to 100) was 15, the “Plant response rating, Oat, Wild” value ([6]; 31 g ai/ha, scale 0 to 100) was 10 and the “Oat, Wild plant response rating” value ([6]; 62 g ai/ha) was 40. The “Oat, Wild plant response rating” value ([6]; 125 g ai/ha) was 30, the “Plant response rating, Waterhemp” value ([7]; 16 g ai/ha, scale of 0 to 100) was 70 and the “Plant response rating, Waterhemp” value ([7]; 31 g ai/ha, scale 0 to 100) was 70. For the same molecule, the “Waterhemp plant response rating” value [7, 17] was 95, the “Plant response rating, Lambsquarters” value ([8]; 16 g ai/ha, scale of 0 to 100) was 70 and the “Plant response rating, Lambsquarters” value ([8]; 31 g ai/ha, scale 0 to 100) was 75. The “Lambsquarters plant response rating” value ([8]; 62 g ai/ha) was 100, the “Lambsquarters plant response rating” value ([8]; 125 g ai/ha) was 100 and the “Plant response rating, Soybean” value (soybean (Glycine max); 16 g ai/ha, scale of 0 to 100) was 35. For the same molecule, the “Plant response rating, Soybean” value (soybean (Glycine max); 31 g ai/ha, scale 0 to 100) was 40, the “Soybean plant response rating” value (soybean (Glycine max); 62 g ai/ha) was 65 and the “Soybean plant response rating” value (soybean (Glycine max); 125 g ai/ha) was 70. For the same molecule, the “Plant response rating, Ryegrass, Italian” value ([9]; 16 g ai/ha, scale of 0 to 100) was 5, the “Plant response rating, Ryegrass, Italian” value ([9]; 31 g ai/ha, scale 0 to 100) was 5 and the “Ryegrass, Italian plant response rating” value ([9]; 62 g ai/ha) was 5. For the same molecule, the “Ryegrass, Italian plant response rating” value ([9]; 125 g ai/ha) was 10, the “Plant response rating, Galium” value ([10]; 16 g ai/ha, scale of 0 to 100) was 75 and the “Plant response rating, Galium” value ([10]; 31 g ai/ha, scale 0 to 100) was 75. The “Galium plant response rating” value ([10]; 62 g ai/ha) was 80, the “Galium plant response rating” value ([10]; 125 g ai/ha) was 90 and the “Plant response rating, Foxtail, Giant” value ([11]; 16 g ai/ha, scale of 0 to 100) was 10. For the same molecule, the “Plant response rating, Foxtail, Giant” value ([11]; 31 g ai/ha, scale 0 to 100) was 10, the “Foxtail, Giant plant response rating” value ([11]; 62 g ai/ha) was 10 and the “Foxtail, Giant plant response rating” value ([11]; 125 g ai/ha) was 20. For the same molecule, the “Plant response rating, Velvetleaf” value ([12]; 16 g ai/ha, scale of 0 to 100) was 20, the “Plant response rating, Velvetleaf” value ([12]; 31 g ai/ha, scale 0 to 100) was 35 and the “Velvetleaf plant response rating” value [12, 17] was 70. For the same molecule, the “Plant response rating, Wheat” value ([13]; 16 g ai/ha, scale of 0 to 100) was 0, the “Plant response rating, Wheat” value ([13]; 31 g ai/ha, scale 0 to 100) was 10 and the “Wheat plant response rating” value [13, 17] was 15. The “Plant response rating, Oat, Wild” value ([14]; 31 g ai/ha, scale 0 to 100) was 10, the “Plant response rating, Oat, Wild” value ([14]; 62 g ai/ha, scale 0 to 100) was 30 and the “Plant response rating, Oat, Wild” value ([14]; 125 g ai/ha, scale of 0 to 100) was 10. For the same molecule, the “Plant response rating, Surinam Grass” value ([15]; 31 g ai/ha, scale 0 to 100) was 35, the “Plant response rating, Surinam Grass” value ([15]; 62 g ai/ha, scale 0 to 100) was 65 and the “Plant response rating, Surinam Grass” value ([15]; 125 g ai/ha, scale of 0 to 100) was 75. The “Plant response rating, Galium” value ([16]; 31 g ai/ha, scale 0 to 100) was 0, the “Plant response rating, Galium” value ([16]; 62 g ai/ha, scale 0 to 100) was 0 and the “Plant response rating, Galium” value ([16]; 125 g ai/ha, scale of 0 to 100) was 0.
